Experiments:
MDCK-mdr1 cells = experiment: MDCK-mdr1 permeability assay; details: apical to basal, 3.16 μM, 1 hr, 37°C, pH 7.4; % transported
CB1 [1] = molecular target: T1, CB1 (Homo sapiens, UniProt P21554); experiment: Radioligand displacement of [3H]CP55940 at CB1; assay type: binding; details: Ki vs CP55940
CB1 [2] = molecular target: T1, CB1; experiment: CB1 Gαq16-coupled intracellular calcium mobilization assay in CHO-K1 cells; assay type: cell-based

T1 sequence (P21554 whole entry): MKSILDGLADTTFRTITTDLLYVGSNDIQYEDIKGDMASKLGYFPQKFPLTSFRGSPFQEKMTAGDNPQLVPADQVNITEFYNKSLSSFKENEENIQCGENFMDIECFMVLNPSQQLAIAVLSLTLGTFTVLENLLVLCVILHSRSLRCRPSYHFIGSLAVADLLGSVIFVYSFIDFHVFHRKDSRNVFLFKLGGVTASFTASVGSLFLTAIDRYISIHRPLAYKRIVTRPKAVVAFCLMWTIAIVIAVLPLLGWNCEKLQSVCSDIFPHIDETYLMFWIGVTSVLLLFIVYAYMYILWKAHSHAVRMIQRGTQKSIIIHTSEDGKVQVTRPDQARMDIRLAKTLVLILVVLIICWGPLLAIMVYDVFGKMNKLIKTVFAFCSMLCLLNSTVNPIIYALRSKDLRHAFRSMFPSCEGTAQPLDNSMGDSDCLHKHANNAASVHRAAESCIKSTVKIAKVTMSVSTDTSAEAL

Row | SMILES | MDCK-mdr1 permeability A to B (MDCK-mdr1 cells) [%] | selectivity for CB1 versus CB2 (CB1 [1]) | Kb (CB1 [2]) [nM]
1 | Cc1c(C(=O)NCC2CCC(CNS(N)(=O)=O)CC2)nn(-c2ccc(Cl)cc2Cl)c1-c1ccc(Cl)cc1 (stereo not shown) [Compound 8] | <1 | – | –
2 | Cc1c(C(=O)NCC2CCC(CNS(C)(=O)=O)CC2)nn(-c2ccc(Cl)cc2Cl)c1-c1ccc(Cl)cc1 (stereo not shown) [Compound 7] | <1 | – | –
3 | Cc1c(C(=O)N[C@H]2CCCN(S(C)(=O)=O)C2)nn(-c2ccc(Cl)cc2Cl)c1-c1ccc(Cl)cc1 [Compound 19d, 5-(4-Chlorophenyl)-1-(2,4-dichlorophenyl)-N-[(3S)-1-methanesulfonylpiperidin-3-yl]-4-methyl-1H-pyrazole-3-carboxamide] | – | over 100 fold | 62

Reference: paper PMC3319116 (Journal of Medicinal Chemistry, 2012)
